Measurements taken from patent publication US9259482B2, “Conjugates of polymers having a therapeutically active agent and an angiogenesis targeting moiety attached thereto and uses thereof in the treatment of angiogenesis related diseases” (Ramot at Tel-Aviv University Ltd., priority 2008, dated 2016).
Like-named read-outs stand apart in the source and are kept apart here.

Columns and labels:
HUVEC [1] = assay: cells; type: cell-based, human
Protocol: (§1) The anti-angiogenesis and anti-proliferative activity of the conjugates described herein was evaluated by the effect of the conjugates on the proliferation of HUVEC, U87 and PANC02 cells.
(§2) HUVEC were plated onto 24-well plate (1×10^4 cells/well) in endothelial cell basal medium 2 (EBM-2; Cambrex, USA) supplemented with 5% fetal bovine serum (FBS). Following 24 hours of incubation (37° C.; 5% CO2) medium was replaced with Endothelial cell growth medium-2 (EGM-2; Cambrex, USA). U87 and PANC02 cells were plated onto 96 well plate (2×10^3 cells/well) in DMEM supplemented with 5% FBS and incubated for 24 hours (37° C.; 5% CO2). Following 24 hours of incubation the medium was replaced with DMEM containing 10% FBS. Cells were challenged with the tested compounds at serial concentrations for 72 hours. After incubation the number of HUVEC were counted by Coulter Counter and U87, and PANC02 cells were counted by XTT respectively.

[2] = tested on: PANC02 murine pancreatic tumor cells; assay: Cell proliferation assay, PANC02; type: cell-based
Protocol: as §1, §2

HUVEC [3] = assay: Capillary-like tube formation assay; type: cell-based, human; conditions: equivalent concentrations of 10 nM (PTX) and 19 nM (E-[c(RGDfk)2]); conjugate with 5 mol % E-[c(RGDfk)2], 2.6 mol % PTX; FIG. 16B
Protocol: The anti-angiogenesis activity of the conjugates was evaluated by the effect of the conjugates on the ability of HUVEC cells to form capillary-like tube structures.
The surface of 24-well plates was coated with Matrigel matrix (50 μl/well) (BD Biosciences, USA) on ice and was then allowed to polymerize at 37° C. for 30 minutes. HUVEC (3×10^4 cells) were challenged with the tested compounds, and were seeded on coated plates in the presence of complete EGM-2 medium. After 8 hours of incubation (37° C.; 5% CO2), wells were imaged using Nikon TE2000E inverted microscope integrated with Nikon DS5 cooled CCD camera by 4× objective, brightfield technique. During the tube formation assay endothelial cells directionally migrate to align, branch and form polygonal networks (i.e. tube like structures). The extent of capillary-like tube structures is inversely proportional to the anti-angiogenesis activity of the compounds.

HUVEC [4] = assay: Endothelial cell adhesion assay on fibrinogen coated plates; type: cell-based, human
Protocol: The ability of E-[c(RGDfk)2] and E-c(RGDfk) moieties (SEQ ID NOs: 2 and 41) in the conjugates to inhibit endothelial attachment to cellular matrix after conjugation, was assessed using an adhesion assay. Flat bottom 96-well culture plates (Nunc, Denmark) were coated with 0.5 μg/well fibrinogen overnight at 4° C. After washing three times with Phosphate buffered saline (PBS), the wells were blocked with 1% bovine serum albumin (BSA) for 1 hour at 37° C. and washed three times again with PBS. HUVEC were harvested in phosphate-buffered saline (137 mM NaCl, 2.7 mM KCl, 4.3 mM Na2HPO4, 1.4 mM KH2PO4, pH 7.3) with 2.5 mM EDTA and resuspended in EBM-2 serum-free media (Clonetics). HUVEC were incubated for 30 minutes, at room temperature, with the tested compounds. The treated HUVEC were plated at 5×10^4 cells per well and were allowed to attach for 1 hour at 37° C. After incubation, the unattached cells were removed by rinsing the wells with PBS. The attached cells were fixed with 3.7% formaldehyde, stained with 0.5% crystal violet and were imaged using Nikon TE2000E inverted microscope integrated with Nikon DS5 cooled CCD camera by 4× objective, brightfield technique. The number of attached cells was quantified with NIH ImageJ processing and analysis software. Non-specific binding was determined by adhesion of HUVEC cells, which were not incubated with any of the tested compounds, to BSA-coated plates.

Cathepsin B = Cathepsin B (Homo sapiens, UniProt P07858); assay: Release of PTX from conjugates in the presence of Cathepsin B; type: in vitro ADME
Protocol: The ability of Cathepsin B to cleave and therefore release PTX from PGA copolymer-E-c(RGDfk)2-PTX (SEQ ID NO:18) was assessed as follows:
Cathepsin B (5 U) was added last to a 1 ml solutions containing 3 mg of the tested conjugates and 20 mM sodium acetate, 2 mM EDTA and 5 mM DTT at a pH of 6 and at a temperature of 37° C. Solutions containing free PGA polymer and free PTX served as control. Sample aliquots (100 μl) were taken at various time points up to 72 hours, frozen and stored in liquid nitrogen, until assayed by HPLC (by Porous50 resin) and/or by Gel permeation chromatography (GPC; direct analysis of 50 μl aliquots). PGA polymer incubated in buffer alone (without addition of cathepsin B) served as an additional control to assess non-enzymatic hydrolytic cleavage. The amount of free PTX released from the tested compounds was assessed by HPLC (X=220 nm). Doxycycline was used as internal standard in all cases. In addition, an LC-MS analysis of the released compounds was also carried out to in order determine the major metabolites released. The MW of the conjugates was determined by diluting 50 μl aliquots of the conjugate containing solution to a final volume of 200 μl with PBS buffer and subjecting the aliquots to GPC analysis (Viscotek TDA detector).

HUVEC [5] = assay: Migration assay of HUVEC towards VEGF; type: cell-based, human; conditions: equivalent concentrations of 100 nM PTX; conjugate with 5 mol % E-[c(RGDfk)2], 2.6 mol % PTX; FIG. 14
Protocol: The anti-angiogenesis activity of the conjugates was evaluated by examining the effect of the conjugates on the ability of HUVEC to migrate toward the Vascular Endothelial Growth Factor (VEGF).
Cell migration assay was performed using modified 8 μm Boyden chambers Transwells® (Costar Inc., USA) coated with 10 μg/ml fibronectin HUVEC (15×10^4 cells/100 μl) were challenged with the tested compounds that were added to the upper chamber of the transwells for 2 hours. Following incubation, cells were allowed to migrate to the underside of the chamber for 4 hours in the presence or absence of VEGF (20 ng/ml) in the lower chamber. Cells were then fixed and stained (Hema 3 Stain System; Fisher Diagnostics, USA). The stained migrated cells were imaged using Nikon TE2000E inverted microscope integrated with Nikon DS5 cooled CCD camera by 10× objective, brightfield illumination. Migrated cells from the captured images per membrane were counted using NIH image software. Migration was normalized to the percent of migration toward VEGF of HUVEC which were not incubated with any compound. The extent of migration is inversely proportional to the anti-angiogenesis activity of the compounds.

[6] = tested on: mCherry-labeled U87 human osteosarcoma tumors; assay: In vivo accumulation of OG-labeled conjugates in tumors, confocal microscopy; parameters: species or system SCID mice; conditions: i.v., 50 μM-RGD; tumors removed one hour after injection; FIG. 17A
Source text: SCID male were inoculated s.c. with 2×10^6 mCherry-labeled U87 human […] or with 5×10^6 mCherry-labeled MG-63 human osteosarcoma. […] One hour after injection, tumors were removed, dissected to thin slices and examined under Zeiss Meta LSM 510 confocal imaging system.
Cellular colocalization of OG labeled PGA-E-[c(RGDfk)2] (SEQ ID NO: 25) conjugate was monitored utilizing a Zeiss Meta LSM 510 confocal imaging systems with 40 oil objectives. All images were taken using a multi-track channel acquisition to prevent emission cross-talk between fluorescent dyes. Single XY, XZ plane-images were acquired in 1024×1024 resolution.

αvβ3 integrin receptor = target: T1, αvβ3 integrin receptor (Homo sapiens, UniProt P05106+P06756); assay: αvβ3 interaction with fluorescently labeled conjugates in HUVEC; type: cell-based
T1 construct: endogenous in cells; host or cells: HUVEC
Protocol: A fluorescence probe, Oregon Green-cadaverine (OG), was conjugated to PGA conjugates through the free carboxylic groups (see Example 5 for synthesis description), in order to study the cellular uptake and trafficking.
HUVEC were plated onto 6 mm plates (5×10^5 cells/plate) in EBM-2 (Cambrex, USA) supplemented with 5% FBS. Following 24 hours of incubation (37° C.; 5% CO2), cells were challenged with either PGA-OG, PGA-c(RADfk)-OG (SEQ ID NO: 24) or PGA-E-[c(RGDfk)2]-OG (SEQ ID NO:25) diluted in EGM-2 medium for 5, 10, 15, 30 or 60 minutes. Cells were then washed in PBS (×3), harvested with PBS containing 2.5 mM EDTA and analyzed with the ImageStream 100 imaging flow cytometer (Amnis). Analysis was performed using IDEAS software.

[7] = Hydrodynamic diameter by Nanoparticle Tracking Analysis; type: physicochemical; conditions: PTX loading of 2.3 mol % and -E-c(RGDfk) loading of 5 mol %; PBS; FIG. 9C
Protocol: The mean hydrodynamic diameter of the PGA conjugates was evaluated using a real time particle analyzer (NanoSight LM20™) containing a solid-state, single mode laser diode (<20 mW, 655 nm) configured to launch a finely focused beam through a 500 μl sample chamber. The tested conjugate was dissolved in PBS to a final concentrations of 9.9 mg/ml. The samples were then injected into the chamber by syringe and allowed to equilibrate to a unit temperature (23° C.) for 30 seconds. The particles dynamics were visualized at 30 frames per second (fps) for 60 seconds at 640×480 resolution by the device CCD camera. The paths the particles take under Brownian motion over time were analyzed using Nanoparticle Tracking Analysis (NTA) software. […] Each sample was measured three times in triplicates, and the results represent the mean diameter.

[8] = HUVEC proliferation, nM PTX, FIG. 13A (5 mol % E-[c(RGDfk)2], 2.6 mol % PTX) and FIG. 13B (monocyclic), read-out: IC50, bell shaped effect, higher value
[9] = HUVEC proliferation, nM PTX, FIG. 13A (5 mol % E-[c(RGDfk)2], 2.6 mol % PTX) and FIG. 13B (monocyclic), read-out: IC50, bell shaped effect, lower value
[10] = HUVEC, 72 hours, bis-cyclic RGD compounds (X = 2), NA = did not reach IC50 in the concentrations used, 'a -- b' = bell-shaped curve, read-out: IC50 (nM) of PGA- PTX-E-[c(RGDfk)2] (SEQ ID NO: 18) 2.6 mol % PTX, 5 mol % RGD

T1 sequence (P06756 31-889 limits assumed): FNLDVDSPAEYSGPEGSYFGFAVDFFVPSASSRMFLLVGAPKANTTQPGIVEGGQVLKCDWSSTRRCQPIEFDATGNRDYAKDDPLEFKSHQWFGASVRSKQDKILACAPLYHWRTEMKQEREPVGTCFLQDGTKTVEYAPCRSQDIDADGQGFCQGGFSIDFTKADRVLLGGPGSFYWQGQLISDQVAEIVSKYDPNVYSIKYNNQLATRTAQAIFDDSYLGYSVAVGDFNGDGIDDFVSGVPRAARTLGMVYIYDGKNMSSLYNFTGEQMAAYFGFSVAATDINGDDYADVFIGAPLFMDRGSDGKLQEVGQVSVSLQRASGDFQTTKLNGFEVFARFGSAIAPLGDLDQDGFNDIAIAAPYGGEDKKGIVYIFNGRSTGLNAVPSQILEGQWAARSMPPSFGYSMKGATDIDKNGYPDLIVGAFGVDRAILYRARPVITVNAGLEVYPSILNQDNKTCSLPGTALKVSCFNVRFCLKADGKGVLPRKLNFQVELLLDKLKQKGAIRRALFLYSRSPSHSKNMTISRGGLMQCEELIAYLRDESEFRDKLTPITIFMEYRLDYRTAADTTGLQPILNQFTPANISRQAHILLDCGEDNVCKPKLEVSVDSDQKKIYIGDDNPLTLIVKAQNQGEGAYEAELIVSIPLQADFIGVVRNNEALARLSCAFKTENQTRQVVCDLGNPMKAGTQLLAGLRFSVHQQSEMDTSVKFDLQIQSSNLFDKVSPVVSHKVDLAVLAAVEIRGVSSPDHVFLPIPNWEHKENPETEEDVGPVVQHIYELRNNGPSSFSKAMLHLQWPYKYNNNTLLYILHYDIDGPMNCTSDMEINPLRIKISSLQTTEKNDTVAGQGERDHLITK
T1 sequence (P06756 891-1048 limits assumed): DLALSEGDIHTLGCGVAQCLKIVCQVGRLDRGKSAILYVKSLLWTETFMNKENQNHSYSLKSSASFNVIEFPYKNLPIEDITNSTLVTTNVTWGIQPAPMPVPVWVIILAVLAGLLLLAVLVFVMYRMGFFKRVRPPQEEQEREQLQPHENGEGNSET
T1 sequence (P05106 27-788): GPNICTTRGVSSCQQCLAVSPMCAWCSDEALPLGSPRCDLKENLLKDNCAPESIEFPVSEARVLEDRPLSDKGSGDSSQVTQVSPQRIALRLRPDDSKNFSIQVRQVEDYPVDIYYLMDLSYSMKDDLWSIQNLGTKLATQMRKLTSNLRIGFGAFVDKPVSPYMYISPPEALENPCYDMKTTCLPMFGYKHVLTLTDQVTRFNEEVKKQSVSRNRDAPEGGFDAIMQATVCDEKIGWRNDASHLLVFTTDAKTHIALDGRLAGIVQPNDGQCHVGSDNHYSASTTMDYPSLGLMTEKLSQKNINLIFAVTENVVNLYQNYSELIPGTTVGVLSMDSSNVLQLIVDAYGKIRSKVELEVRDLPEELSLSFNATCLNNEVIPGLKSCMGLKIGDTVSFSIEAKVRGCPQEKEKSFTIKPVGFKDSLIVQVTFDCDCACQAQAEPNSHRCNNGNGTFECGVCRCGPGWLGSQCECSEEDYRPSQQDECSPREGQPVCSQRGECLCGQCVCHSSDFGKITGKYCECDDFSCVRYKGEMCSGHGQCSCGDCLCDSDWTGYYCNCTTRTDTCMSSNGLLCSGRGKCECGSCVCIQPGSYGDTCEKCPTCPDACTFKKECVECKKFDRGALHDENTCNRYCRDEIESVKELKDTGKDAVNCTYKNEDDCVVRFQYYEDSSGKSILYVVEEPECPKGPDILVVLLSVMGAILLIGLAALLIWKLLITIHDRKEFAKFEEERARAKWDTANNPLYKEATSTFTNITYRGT

Substance: PGA-Copolymer -E-c(RGDfk)2-Paclitaxel [PGA-PTX-E-[c(RGDfk)2]]
- IC50 (HUVEC [1]; [8]): ~20 nM
- IC50 (HUVEC [1]; [9]): ~0.2 nM
- IC50 (HUVEC [1]; [10]): 25 nM
- IC50 ([2]; PANC02, 72 hours, bis-cyclic RGD compounds (X = 2), NA = did not reach IC50 in the concentrations used, read-out: IC50 (nM) of PGA- PTX-E-[c(RGDfk)2] (SEQ ID NO: 18) 5 mol % PTX, 3.9 mol % RGD): 650 nM
- IC50 ([2]; nM PTX, equivalent doses, FIG. 12C, read-out: IC50 of PANC02 proliferation): ~650 nM
- inhibition of the formation of tubular structures of HUVEC (HUVEC [3]): about 40%
- adhesion inhibition compared with the monocyclic conjugate PGA-PTX-E-c(RGDfk) (HUVEC [4]; both loadings of the bis-cyclic conjugate): inhibited the adhesion more effectively than the monocyclic RGDfk peptide conjugate
- adhesion inhibition compared with the other loading (HUVEC [4]; conjugate with 3.9 mol % E-[c(RGDfk)2] and 5.5 mol % PTX versus conjugate with 5 mol % E-[c(RGDfk)2] and 2.6 mol % PTX): more effective than the second
- PTX release kinetics compared to the other conjugates (Cathepsin B; conjugate with 3.9 mol % E-[c(RGDfk)2], 5.5 mol % PTX, pH 6, 37° C.): slightly faster release kinetics
- PTX release compared with the conjugate of 2.6 mol % PTX, 5 mol % E-[c(RGDfk)2] (Cathepsin B; conjugate with 5.5 mol % PTX, 3.9 mol % E-[c(RGDfk)2], after 48 hours): greater
- inhibition of the migration of HUVEC towards VEGF (HUVEC [5]): about 40%

Substance: PGA-E-[c(RGDfk)2]
- accumulation of the conjugate at the tumor site [6]: able to accumulate in the tumor tissue
- effect on HUVEC proliferation (HUVEC [1]; FIG. 12A): only at high concentrations
- IC50 (HUVEC [1]; [10]): 2900 nM
- IC50 (HUVEC [1]; HUVEC, 72 hours, bis-cyclic RGD compounds (X = 2), NA = did not reach IC50 in the concentrations used, 'a -- b' = bell-shaped curve, read-out: IC50 (nM) of PGA- PTX-E-[c(RGDfk)2] (SEQ ID NO: 18) 5 mol % PTX, 3.9 mol % RGD): 7000 nM

Substance: PGA-E-[c(RGDfk)2]-OG
- accumulation of the conjugate at the tumor site [6]: high accumulation
- time at which conjugate-cell adherence was first observed (αvβ3 integrin receptor; ImageStream 100 imaging flow cytometer): 10 min
- extent of binding / uptake by HUVEC (αvβ3 integrin receptor; OG fluorescence, FIGS. 11B, 11C): higher uptake

Substance: PGA-PTX-E-c(RGDfk)
- IC50 (HUVEC [1]; [8]): ~20 nM
- IC50 (HUVEC [1]; [9]): ~0.2 nM
- mean hydrodynamic diameter [7]: about 35 nm
- inhibition of HUVEC adhesion to fibrinogen (HUVEC [4]; equivalent concentrations of 50 μM RGD, FIG. 15): ~50%
